Data on four molecules can be found in ChEMBL document CHEMBL1139557, “Synthesis and relative bioavailability of meptazinol benzoyl esters as prodrugs” (Bioorg Med Chem Lett, 2005).

Series [1] in a line: Relative bioavailability in stomach closed loop study in rats; Mean of 4 exp. In kind it is ADME, organism-based. Particulars: rat, in vivo; read-out: Relative Bioavailability.
Series [2] in a line: Relative bioavailability in jejunum closed loop study in rats; Mean of 4 exp. Conditions: rat, in vivo, other. It counts as ADME, organism-based.
Series [3] has as its system Mus musculus. In words: Analgesic activity in hot plate test when dosed at 100 umol/kg intraperitoneally. In kind it is functional. For orientation: Hot-plate and tail-flick tests time the reaction to a heat stimulus.
In series [4] the test system is Mus musculus. In words: Analgesic activity against mice in acetylcholine induced mice writhing test when dosed at 50 umol/kg (ig) administration after 80 min. In kind it is functional. In general terms: An intraperitoneal irritant provokes the stretching counted in writhing tests.
The nature of series [5]: (§1) Bioavailability in rat. Conditions: in vivo. It counts as ADME, organism-based.
Series [6] is described as follows: as §1. It counts as ADME, organism-based. Conditions: in vivo. This is another data set of the same source.
A short description of series [7]: as §1. It counts as ADME, organism-based. Particulars: in vivo. This is another data set of the same source.
Series [8] in a line: as §1. It counts as ADME, organism-based. Particulars: in vivo. The source holds these as a separate data set.
Series [9] is described as follows: as §1. It counts as ADME, organism-based. Particulars: in vivo. This is another data set of the same source.
Series [10] can be described thus: as §1. It counts as ADME, organism-based. Particulars: in vivo. This is another data set of the same source.
For series [11], the system named is Mus musculus. As to the kind of experiment: Analgesic activity against mice in acetylcholine induced mice writhing test when dosed at 50 umol/kg (ig) administration after 40 min. It counts as functional.
The test system of series [12] is Mus musculus. As to the kind of experiment: Analgesic activity against mice in hot plate test when dosed at 100 umol/kg intraperitoneally. In kind it is functional.

For `CCC1(c2cccc(OC(=O)c3c(C)cccc3N)c2)CCCCN(C)C1.Cl` (stereo unspecified), the bioavailability in [1] came out at 65.4%. In addition, the “Relative Bioavailability” value in [2] was 562.72%.

Take `CCC1(c2cccc(OC(=O)c3ccccc3)c2)CCCCN(C)C1` (stereo unspecified): the Activity in series [3] is reported as 4; in [4], 2; in [11], 2. The bioavailability in [5] came to 53.9%; in series [6], 112%; in [7], 81.6%; in [8] it was 58.1%; in [9], 75.4%; in [10], 133%.

Take `CCC1(c2cccc(OC(=O)c3ccccc3N)c2)CCCCN(C)C1` (stereo unspecified): the Activity in series [4] was determined as 0; in [12], 3; in [11], 1. Besides, in series [5], the F is listed as 183.64%. Moreover, the bioavailability in series [6] amounted to 107%; in [7], 81.9%; in series [8] it was 101%; in [9], 59.8%; in series [10] it was 80.4%.

In the case of `CCC1(c2cccc(OC(=O)c3c(C)cccc3N)c2)CCCCN(C)C1` (stereo unspecified), the bioavailability stood at 120% in series [5], 136% in series [6], 130% in series [9] and 149% in [10]. Moreover, the results for the F in [7] and in series [8] were 167.97% and 174.27%, respectively.
